Measured values: ChEMBL document CHEMBL1201861, “Genomics of Drug Sensitity in Cancer screening data, Wellcome Trust Sanger Institute”

Assays:
MRK-nu-1 = assay: cells; type: functional, cell-based, Homo sapiens; settings: Homo sapiens, MRK-nu-1;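 further: cell viability assay measuring growth suppression of human MRK-nu-1 cells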
Description: SANGER: Inhibition of human MRK-nu-1 cell growth in a cell viability assay.

NCI-H128 = assay: SANGER: Inhibition of human NCI-H128 cell growth in a cell viability assay.; type: functional, cell-based
CHP-126 = assay: cells; type: functional, cell-based, Homo sapiens; settings: Homo sapiens, CHP-126
Description: SANGER: Inhibition of human CHP-126 cell growth in a cell viability assay.

CAL-148 = assay: cells; type: functional, cell-based, Homo sapiens; settings: Homo sapiens, CAL-148
Description: SANGER: Inhibition of human CAL-148 cell growth in a cell viability assay.

COR-L279 = assay: SANGER: Inhibition of human COR-L279 cell growth in a cell viability assay.; type: functional, cell-based; settings: Homo sapiens, COR-L279
EB2 = assay: cells; type: functional, cell-based, Homo sapiens; settings: Homo sapiens, EB2;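 further: growth inhibition of EB2 cells, read out with a cell viability assay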
Description: SANGER: Inhibition of human EB2 cell growth in a cell viability assay.

BC1 cell line = assay: SANGER: Inhibition of human BC-1 cell growth in a cell viability assay.; type: functional, cell-based; settings: Homo sapiens, BC1
TALL-1 = assay: cells; type: functional, cell-based, Homo sapiens; settings: Homo sapiens, TALL-1;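 further: growth inhibition of cultured human TALL-1 cells, read out by a cell viability assay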
Description: SANGER: Inhibition of human TALL-1 cell growth in a cell viability assay.

NCI-H322M = assay: cells; type: functional, cell-based, Homo sapiens; settings: Homo sapiens, NCI-H322M;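 further: cell viability assay measuring inhibition of growth of human NCI-H322M cells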
Description: SANGER: Inhibition of human NCI-H322M cell growth in a cell viability assay.

KARPAS-422 = assay: cells; type: functional, cell-based, Homo sapiens; settings: Homo sapiens, KARPAS-422
Description: SANGER: Inhibition of human KARPAS-422 cell growth in a cell viability assay.

EB-3 = assay: cells; type: functional, cell-based, Homo sapiens; settings: Homo sapiens, EB-3;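 further: human EB-3 cells, growth inhibition read out via a cell viability assay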
Description: SANGER: Inhibition of human EB-3 cell growth in a cell viability assay.

SKM-1 = assay: SANGER: Inhibition of human SKM-1 cell growth in a cell viability assay.; type: functional, cell-based
769-P = assay: cells; type: functional, cell-based, Homo sapiens; settings: Homo sapiens, 769-P
Description: SANGER: Inhibition of human 769-P cell growth in a cell viability assay.

P12-Ichikawa = assay: cells; type: functional, cell-based, Homo sapiens; settings: Homo sapiens, P12-Ichikawa
FaDu = assay: cells; type: functional, cell-based, Homo sapiens; settings: Homo sapiens, FaDu;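 further: cell viability readout of growth inhibition in FaDu cells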
Description: SANGER: Inhibition of human FADU cell growth in a cell viability assay.

NBsusSR = assay: cells; type: functional, cell-based, Homo sapiens; settings: Homo sapiens, NBsusSR;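 further: growth inhibition of the human cell line, read out with a cell viability assay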
Description: SANGER: Inhibition of human NBsusSR cell growth in a cell viability assay.

CWR22R = assay: cells; type: functional, cell-based, Homo sapiens; settings: Homo sapiens, 22Rv1;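 further: growth inhibition of 22Rv1 cells, read out with a cell viability assay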
Description: SANGER: Inhibition of human 22RV1 cell growth in a cell viability assay.

SK-N-AS = assay: cells; type: functional, cell-based, Homo sapiens; settings: Homo sapiens, SK-N-AS;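 further: growth inhibition of human SK-N-AS cells, measured with a cell viability assay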
Description: SANGER: Inhibition of human SK-N-AS cell growth in a cell viability assay.

HCT-116 = assay: cells; type: functional, cell-based, Homo sapiens; settings: Homo sapiens, HCT-116
Description: SANGER: Inhibition of human HCT-116 cell growth in a cell viability assay.

SN12C = assay: cells; type: functional, cell-based, Homo sapiens; settings: Homo sapiens, SN12C;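 further: growth inhibition of human SN12C cells, measured by a cell viability assay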
Description: SANGER: Inhibition of human SN12C cell growth in a cell viability assay.

TI-73 = assay: cells; type: functional, cell-based, Homo sapiens; settings: Homo sapiens, TI-73;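 further: cell viability assay measuring how much compounds suppress growth of the cultured cell line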
Description: SANGER: Inhibition of human TI-73 cell growth in a cell viability assay.

BFTC-909 = assay: cells; type: functional, cell-based, Homo sapiens; settings: Homo sapiens, BFTC-909
Description: SANGER: Inhibition of human BFTC-909 cell growth in a cell viability assay.

MDA-MB-157 = assay: cells; type: functional, cell-based, Homo sapiens; settings: Homo sapiens, MDA-MB-157
Description: SANGER: Inhibition of human MDA-MB-157 cell growth in a cell viability assay.

T47D = assay: cells; type: functional, cell-based, Homo sapiens; settings: Homo sapiens, T47D;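 further: growth inhibition of human T47D cells, measured with a cell viability assay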
Description: SANGER: Inhibition of human T47D cell growth in a cell viability assay.

HMV-2 cell line = assay: cells; type: functional, cell-based, Homo sapiens; settings: Homo sapiens, HMV-2;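 further: growth inhibition of HMV-II cells, read out with a cell viability assay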
Description: SANGER: Inhibition of human HMV-II cell growth in a cell viability assay.

COR-L105 = assay: cells; type: functional, cell-based, Homo sapiens; settings: Homo sapiens, COR-L105
Description: SANGER: Inhibition of human COR-L105 cell growth in a cell viability assay.

HSC-2 = assay: cells; type: functional, cell-based, Homo sapiens; settings: Homo sapiens, HSC-2;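 further: growth inhibition of human HSC-2 cells, read out by a cell viability assay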
Description: SANGER: Inhibition of human HSC-2 cell growth in a cell viability assay.

8505C = assay: cells; type: functional, cell-based, Homo sapiens; settings: Homo sapiens, 8505C
Description: SANGER: Inhibition of human 8505C cell growth in a cell viability assay.

NCI-H630 = assay: cells; type: functional, cell-based, Homo sapiens; settings: Homo sapiens, NCI-H630;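 further: growth inhibition of NCI-H630 cells, read out with a cell viability assay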
Description: SANGER: Inhibition of human NCI-H630 cell growth in a cell viability assay.

ECC10 = assay: cells; type: functional, cell-based, Homo sapiens; settings: Homo sapiens, ECC10;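 further: growth inhibition of ECC10 cells, read out by a cell viability assay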
Description: SANGER: Inhibition of human ECC10 cell growth in a cell viability assay.

BALL-1 = assay: cells; type: functional, cell-based, Homo sapiens; settings: Homo sapiens, BALL-1;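 further: growth inhibition of BALL-1 cells, read out with a cell viability assay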
Description: SANGER: Inhibition of human BALL-1 cell growth in a cell viability assay.

NCI-H2291 = assay: cells; type: functional, cell-based, Homo sapiens; settings: Homo sapiens, NCI-H2291
Description: SANGER: Inhibition of human NCI-H2291 cell growth in a cell viability assay.

SW1990 = assay: cells; type: functional, cell-based, Homo sapiens; settings: Homo sapiens, SW1990
Description: SANGER: Inhibition of human SW1990 cell growth in a cell viability assay.

LU-135 = assay: cells; type: functional, cell-based, Homo sapiens; settings: Homo sapiens, LU-135
Description: SANGER: Inhibition of human LU-135 cell growth in a cell viability assay.

SW900 = assay: cells; type: functional, cell-based, Homo sapiens; settings: Homo sapiens, SW900;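 further: IC50 is the concentration that inhibits SW900 cell growth, measured by a cell viability assay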
Description: SANGER: Inhibition of human SW900 cell growth in a cell viability assay.

H-EMC-SS = assay: cells; type: functional, cell-based, Homo sapiens; settings: Homo sapiens, H-EMC-SS
Description: SANGER: Inhibition of human H-EMC-SS cell growth in a cell viability assay.

C-4-II = assay: SANGER: Inhibition of human C-4-II cell growth in a cell viability assay.; type: functional, cell-based; settings: Homo sapiens, C-4-II
EFE-184 = assay: cells; type: functional, cell-based, Homo sapiens; settings: Homo sapiens, EFE-184
Description: SANGER: Inhibition of human EFE-184 cell growth in a cell viability assay.

EHEB = assay: cells; type: functional, cell-based, Homo sapiens; settings: Homo sapiens, EHEB;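 further: growth inhibition of human EHEB cells, read out with a cell viability assay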
Description: SANGER: Inhibition of human EHEB cell growth in a cell viability assay.

NCI-H1734 = assay: cells; type: functional, cell-based, Homo sapiens; settings: Homo sapiens, NCI-H1734;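 further: growth inhibition of human NCI-H1734 cells, read out with a cell viability assay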
Description: SANGER: Inhibition of human NCI-H1734 cell growth in a cell viability assay.

DV-90 = assay: cells; type: functional, cell-based, Homo sapiens; settings: Homo sapiens, DV-90;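 further: Read-out is a viability assay, with IC50 reflecting the drop in DV-90 cell growth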
Description: SANGER: Inhibition of human DV-90 cell growth in a cell viability assay.

NCI-H838 = assay: cells; type: functional, cell-based, Homo sapiens; settings: Homo sapiens, NCI-H838;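 further: growth inhibition of human NCI-H838 cells, read out by a cell viability assay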
Description: SANGER: Inhibition of human NCI-H838 cell growth in a cell viability assay.

MES-SA = assay: cells; type: functional, cell-based, Homo sapiens; settings: Homo sapiens, MES-SA;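 further: growth inhibition of human MES-SA cells, read out with a cell viability assay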
Description: SANGER: Inhibition of human MES-SA cell growth in a cell viability assay.

MEL-JUSO = assay: cells; type: functional, cell-based, Homo sapiens; settings: Homo sapiens, MEL-JUSO;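 further: growth inhibition of human MEL-JUSO cells, read out with a cell viability assay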
Description: SANGER: Inhibition of human MEL-JUSO cell growth in a cell viability assay.

DMS-53 = assay: cells; type: functional, cell-based, Homo sapiens; settings: Homo sapiens, DMS-53;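 further: cell viability assay measuring growth inhibition of human DMS-53 cells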
Description: SANGER: Inhibition of human DMS-53 cell growth in a cell viability assay.

NCI-H1618 = assay: cells; type: functional, cell-based, Homo sapiens; settings: Homo sapiens, NCI-H1618;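 further: growth inhibition of human NCI-H1618 cells, measured by a cell viability assay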
Description: SANGER: Inhibition of human NCI-H1618 cell growth in a cell viability assay.

| SMILES | IC50 (MRK-nu-1) | IC50 (CHP-126) | IC50 (CAL-148) | IC50 (COR-L279) | IC50 (EB2) | IC50 (BC1 cell line) | IC50 (769-P) | IC50 (P12-Ichikawa) | IC50 (FaDu) | IC50 (CWR22R) | IC50 (SK-N-AS) | IC50 (SN12C) | IC50 (BFTC-909) | IC50 (MDA-MB-157) | IC50 (T47D) | IC50 (HMV-2 cell line) | IC50 (COR-L105) | IC50 (HSC-2) | IC50 (8505C) | IC50 (SW1990) | other results |
| --- | --- | --- | --- | --- | --- | --- | --- | --- | --- | --- | --- | --- | --- | --- | --- | --- | --- | --- | --- | --- | --- |
| COc1cc(N2CCN(C)CC2)ccc1Nc1ncc2c(n1)N(C)c1ccccc1C(=O)N2C | > 8 µM | > 8 µM | > 8 µM | 7.99 µM | 2.82 µM | > 8 µM | – | – | – | – | – | – | – | – | – | – | – | – | – | – | IC50 (NCI-H128): > 8 µM; IC50 (TALL-1): > 8 µM; IC50 (NCI-H322M): > 8 µM; IC50 (KARPAS-422): > 8 µM; IC50 (EB-3): > 8 µM; IC50 (SKM-1): > 8 µM |
| COc1cc2c(Nc3ccc(NC(=O)c4ccccc4)cc3)ncnc2cc1OCCCN1CCOCC1 | – | – | – | – | – | – | > 4 µM | 0.224 µM | > 4 µM | > 4 µM | > 4 µM | > 4 µM | > 4 µM | > 4 µM | > 4 µM | > 4 µM | > 4 µM | > 4 µM | > 4 µM | > 4 µM | IC50 (NBsusSR): 0.914 µM; IC50 (HCT-116): 1.81 µM; IC50 (TI-73): > 4 µM; IC50 (NCI-H630): > 4 µM; IC50 (ECC10): 1.63 µM; IC50 (BALL-1): > 4 µM; IC50 (NCI-H2291): > 4 µM; IC50 (LU-135): 2.66 µM; IC50 (SW900): > 4 µM; IC50 (H-EMC-SS): > 4 µM |
| Cc1cc([N+](=O)[O-])ccc1NS(=O)(=O)c1cc(Cl)ccc1Cl | 2.73 µM | > 32 µM | 13.7 µM | > 32 µM | > 32 µM | 3.6 µM | 6.73 µM | 13.8 µM | 4.28 µM | 2.63 µM | 6.53 µM | 3.64 µM | 3.61 µM | 8.59 µM | 26.9 µM | 1.54 µM | 6.58 µM | 4.56 µM | 2.67 µM | 5.38 µM | IC50 (C-4-II): 6.37 µM; IC50 (EFE-184): 5.8 µM; IC50 (EHEB): 9.79 µM; IC50 (NCI-H1734): 8.73 µM; IC50 (DV-90): 1.94 µM; IC50 (TALL-1): 6.23 µM; IC50 (NCI-H838): 20.6 µM; IC50 (HCT-116): 3.72 µM; IC50 (NCI-H322M): > 32 µM; IC50 (MES-SA): > 32 µM; IC50 (KARPAS-422): 8.26 µM; IC50 (MEL-JUSO): 5.17 µM; IC50 (EB-3): 4.25 µM; IC50 (DMS-53): 1.1 µM; IC50 (NCI-H1618): > 32 µM |
| CC(C)CCN1c2nc(Nc3cc(F)c(O)c(F)c3)ncc2N(C)C(=O)C1C (stereo not given) | – | – | – | – | – | – | > 5 µM | 2.53 µM | > 5 µM | > 5 µM | 2.29 µM | > 5 µM | > 5 µM | 4.31 µM | > 5 µM | 2.17 µM | > 5 µM | > 5 µM | 4.46 µM | > 5 µM | IC50 (NBsusSR): 1.83 µM; IC50 (HCT-116): > 5 µM; IC50 (TI-73): > 5 µM; IC50 (NCI-H630): > 5 µM; IC50 (ECC10): 0.701 µM; IC50 (MEL-JUSO): > 5 µM; IC50 (BALL-1): > 5 µM; IC50 (NCI-H2291): > 5 µM; IC50 (LU-135): > 5 µM; IC50 (SW900): > 5 µM; IC50 (H-EMC-SS): > 5 µM |
| COc1cccc2c1C(=O)c1c(O)c3c(c(O)c1C2=O)C[C@@](O)(C(=O)CO)C[C@@H]3O[C@H]1C[C@H](N)[C@H](O)[C@H](C)O1 [DOXORUBICIN] | 0.0437 µM | 0.0592 µM | 0.0269 µM | 0.0569 µM | 0.0337 µM | 0.0868 µM | 0.0208 µM | 0.0493 µM | 0.102 µM | 0.0212 µM | > 1.02 µM | 0.395 µM | 0.118 µM | 0.499 µM | 0.47 µM | 0.0226 µM | 0.189 µM | 0.0268 µM | 0.0196 µM | 0.202 µM | IC50 (C-4-II): 0.473 µM; IC50 (EFE-184): > 1.02 µM; IC50 (EHEB): 0.113 µM; IC50 (NCI-H1734): 0.053 µM; IC50 (DV-90): 0.329 µM; IC50 (TALL-1): > 1.02 µM; IC50 (NCI-H838): 0.225 µM; IC50 (NCI-H322M): > 1.02 µM; IC50 (MES-SA): 0.0995 µM; IC50 (KARPAS-422): 0.193 µM; IC50 (MEL-JUSO): 0.0145 µM; IC50 (EB-3): 0.771 µM; IC50 (DMS-53): > 1.02 µM; IC50 (NCI-H1618): 0.104 µM |
